# According to PubChem BioAssay AID1996:
# Conditions: buffer; pH 7.4; 200.0 µM
row,Compound,solubility kinetic
1,COCCN(C(=O)c1ccccc1OC)c1nnc(C)s1,> 46.1 µg/mL
2,C=CCn1c(O)c(C(CC)=Nc2ccc3c(c2)CCC3)c(=O)[nH]c1=O,1.4 µg/mL
3,CCCNC(=O)N1CCC(Cc2ccccc2)CC1,> 39.1 µg/mL
4,CCc1ccc(N2CN=c3s/c(=C\c4ccccc4)c(=O)n3C2)cc1,8.2 µg/mL
5,CNC(=S)NNC(=O)c1cccc(N(C)C)c1,> 37.9 µg/mL
6,Cc1ccc(C)c(OCCN2CCOCC2)c1,24.9 µg/mL
7,COc1ccc(CCNC(=O)c2ccc(Br)cc2)cc1,1.3 µg/mL
8,O=C(COc1ncnc2sccc12)Nc1ccc(F)cc1F,> 48.2 µg/mL
9,O/N=C/c1ccc(-c2ccccc2OC(F)(F)F)o1,1.7 µg/mL
10,O=C(Cc1ccccc1)Nc1ccc(C(=O)NCc2ccccc2)cc1,< 0.4 µg/mL
11,CC(C)(C)CC(=O)N1CCN(Cc2ccc3c(c2)OCO3)CC1,> 47.8 µg/mL
12,CN(C)C=NC(=O)c1cc(C(=O)c2ccc(F)cc2)c[nH]1,> 43.1 µg/mL
13,Cc1csc(NC(=O)CCCNC(=O)c2ccc(Cl)cc2)n1,10.2 µg/mL
14,Cc1ccc(CNC(=O)CNC(=O)c2ccco2)cc1,> 40.8 µg/mL
15,O=C1CCc2cc(S(=O)(=O)Nc3ccccc3Cl)ccc2N1,> 50.5 µg/mL
16,CN1c2ccccc2Sc2cc(N)ccc21,25.6 µg/mL
17,CC(=O)c1ccc(NC(=S)NCC(c2ccco2)N2CCCC2)cc1 (stereo unspecified),52.5 µg/mL
18,O=C(Nc1nccs1)C1CC(=O)N(c2ccc(Cl)cc2)C1 (stereo unspecified),4.1 µg/mL
19,Cc1ccc(CN2CC(C(=O)Nc3ccc(C)cn3)CC2=O)cc1 (stereo unspecified),> 48.5 µg/mL
20,CC(=O)N1C[C@H](O)C[C@H]1C(=O)O,> 26 µg/mL
21,CCC(=O)N(CCC(c1ccco1)C(C)C)Cc1ccccc1 (stereo unspecified),23.7 µg/mL
22,O=C(NCc1ccccc1)c1cc[n+](Cc2ccccc2)cc1.[Cl-],49.7 µg/mL
23,OC(CNCc1ccccc1)c1ccccc1 (stereo unspecified),> 34.1 µg/mL
24,O=C(COC(=O)c1ccc2c(c1)OCO2)Nc1ccccc1OC(F)F,3.7 µg/mL
25,O=C(COC(=O)CCC(=O)c1ccc(F)cc1)NCc1ccccc1Cl,> 56.7 µg/mL

row,Compound,solubility kinetic
1,Cc1[nH]c(=O)[nH]c(=O)c1NC(=O)c1ccc(OC(C)C)cc1,> 45.5 µg/mL
2,COc1ccc(NC(=O)CCN2CCOCC2)c(OC)c1,> 44.2 µg/mL
3,CCc1nc2sc3c(c2c(=O)n1CCO)CCC3,> 39.7 µg/mL
4,Clc1ccc(-c2cc(CN3CCOCC3)no2)cc1,> 41.8 µg/mL
5,COc1ccccc1Cc1nc(-c2ccncc2)no1,33.4 µg/mL
6,Nc1c(Br)cc(Br)cc1CNC1CCC(O)CC1 (stereo unspecified),> 56.7 µg/mL
7,CCOC(=O)c1csc(NC(=O)CN2CCCCC2)n1,> 44.6 µg/mL
8,CC(C)N(Cc1ccccc1)C(=S)Nc1ccccc1F,40 µg/mL
9,O=C(Cc1ccccc1)NC(C(=O)O)C(O)c1ccc([N+](=O)[O-])cc1 (stereo unspecified),> 51.6 µg/mL
10,COc1cc(/C=C/C(=O)OCC(=O)N(C)Cc2ccccc2)cc(OC)c1OC,> 59.9 µg/mL
11,COc1cc(OC)cc(C(=O)OCC(=O)Nc2ccc3[nH]c(=O)[nH]c3c2)c1,4.4 µg/mL
12,O=S(=O)(NC1CC1)c1ccc(Cl)cc1,> 34.8 µg/mL
13,CCOC(=O)c1sc2nc(C)nc(N3CCN(S(=O)(=O)c4ccccc4)CC3)c2c1C,2.5 µg/mL
14,Cc1ccc(SCC(=O)NCc2ccccc2)cc1,> 40.7 µg/mL
15,Cc1cc(C(=O)Nc2nccs2)c2cc(F)ccc2n1,3.1 µg/mL
16,CCc1ccc(CN2C(=O)c3ccccc3C2C(=O)NC(C)CC)cc1 (stereo unspecified),5.3 µg/mL
17,CCOC(=O)C1=C(C)NC(C)=C(C(=O)OCC)C1c1ccco1,8.8 µg/mL
18,O=C1CCCN1CCCNc1ncnc2sccc12,> 41.5 µg/mL
19,OCCNc1nc(N2CCOCC2)nc(N2CCOCC2)n1,44.7 µg/mL
20,Cn1c(=O)c2[nH]c(-c3ccc(S(=O)(=O)O)cc3)nc2n(C)c1=O.O,> 53.2 µg/mL
21,Cc1ccc(C(=O)NC(=S)NCc2ccccc2)cc1Br,0.4 µg/mL
22,N#CCNC1CC(=O)N(c2ccccc2)C1=O (stereo unspecified),> 34.4 µg/mL
23,CN1C(=O)c2ccc(C(=O)Nc3ccc4c(c3)OCO4)cc2C1=O,0.7 µg/mL
24,COc1ccc2nc(NC(=O)c3c(C)noc3C)sc2c1,> 45.5 µg/mL
25,NC(=O)C1(C(N)=O)OC1c1ccccc1 (stereo unspecified),> 30.9 µg/mL

row,Compound,solubility kinetic
1,O=S(=O)(c1cccs1)N1CN(C2CCCC2)c2nc3ccccc3nc21,8.1 µg/mL
2,CCCc1cc(C(=O)N2CCCN(C)CC2)cs1,> 40 µg/mL
3,CCOc1cc(/C=C2/C(=O)ON=C2C)cc(Br)c1O,> 48.9 µg/mL
4,Cc1nonc1C(=O)N1CCCC(Nc2ccc(C(C)C)cc2)C1 (stereo unspecified),32.8 µg/mL
5,Cc1ccc(CNC(=O)CSCc2ccccc2F)cc1,43.1 µg/mL
6,CN1c2ccccc2C(=O)NC1c1ccc(Cl)cc1 (stereo unspecified),> 40.9 µg/mL
7,Cc1ccc(S(=O)(=O)Nc2cccc(C(=O)NCC(c3ccc(F)cc3)N3CCOCC3)c2)cc1 (stereo unspecified),58.2 µg/mL
8,NC(=O)C1CCN(C(=O)CSc2nc(O)cc(=O)[nH]2)CC1,31.1 µg/mL
9,O=C(NCC(=O)N1CCOCC1)c1ccc(Br)cc1,> 49.1 µg/mL
10,O=C(c1ccc(S(=O)(=O)Nc2ccccc2Cl)cc1)N1CCCC1,> 54.7 µg/mL
11,CCOCCOC(=O)c1[nH]c2c(c1C)C(=O)CC(c1ccccc1)C2 (stereo unspecified),2.3 µg/mL
12,Cc1c(Cl)cccc1NC(=O)CCN1CCN(C)CC1,> 44.4 µg/mL
13,OC(CNC1Cc2ccccc2C1)c1ccccc1 (stereo unspecified),> 38 µg/mL
14,CC(C(=O)NC1CCCC1)N1CCN(Cc2ccccc2)CC1 (stereo unspecified),> 47.3 µg/mL
15,CN1CCN(c2nc3ccccn3c(=O)c2C=C(C#N)C#N)CC1,48 µg/mL
16,O=C(Cc1ccc(Cl)cc1)NNC(=O)C1CC=CCC1C(=O)O (stereo unspecified),> 50.5 µg/mL
17,CC(=O)N1CCN(c2ccccc2NC(=O)COc2ccccc2C)CC1,49.7 µg/mL
18,COc1ccc2ccc(OCC(=O)Nc3cc(C)on3)cc2c1,12.4 µg/mL
19,CC(C)(C)CC(=O)NCCc1csc(-c2ccccc2)n1,> 45.4 µg/mL
20,CCOC(=O)C1=C(C)N(C)C(=S)N(C)C1c1ccc(OC)cc1 (stereo unspecified),19.8 µg/mL
21,O=C(Nc1ccc(F)cc1)Nc1cccnc1,> 34.7 µg/mL
22,CCC(C)[C@H](NC(=O)NCc1ccco1)C(=O)OC (stereo partly specified),> 40.2 µg/mL
23,CCN1CCC(N2CCN(c3ccc(F)cc3)CC2)CC1,35.5 µg/mL
24,On1c(-c2ccccc2Cl)nc2ncccc21,> 36.9 µg/mL
25,CN(C)/C=N/NC(=O)C1Cc2c(ccc3ccccc23)O1 (stereo unspecified),> 42.5 µg/mL

row,Compound,solubility kinetic
1,COc1ccc(NS(=O)(=O)c2cn(C)cn2)cc1,> 40.1 µg/mL
2,COc1ccccc1OCCn1c(=O)n(C)c2ccccc21,42.2 µg/mL
3,CC1(C)C2([N+](=O)[O-])CN3CC1([N+](=O)[O-])CN(C2)C3c1ccccn1 (stereo unspecified),7.9 µg/mL
4,CCOC(=O)c1nc(Nc2cccc(C)c2)c2ccccc2n1,10.8 µg/mL
5,CCc1nc(SCc2ccccn2)[nH]c(=O)c1C,> 39.2 µg/mL
6,O=C(CCN1C(=O)C2C3CCC(C3)C2C1=O)OCC(=O)c1ccccc1 (stereo unspecified),52.9 µg/mL
7,Cc1ccc(S(=O)(=O)N2CCCC2c2cccnc2)cc1 (stereo unspecified),> 45.4 µg/mL
8,Cc1ccc(NC(=O)NC(=O)COc2c(F)c(F)cc(F)c2F)c(C)c1,20.5 µg/mL
9,CCC(C)NS(=O)(=O)c1cc2c3c(c1)CCC(=O)N3CCC2 (stereo unspecified),> 48.4 µg/mL
10,COC(=O)C1C(O)=C(C=Nc2cccc3ccccc23)C(=O)CC1(C)C (stereo unspecified),31.6 µg/mL
11,C=CCn1c(O)c(C=Nc2ccc(F)cc2)c(=O)[nH]c1=O,19.3 µg/mL
12,CN(CC(=O)O)S(=O)(=O)c1ccc2[nH]c(=O)c(=O)[nH]c2c1,> 47 µg/mL
13,C/C(N)=C(/C#N)C(=O)COC(=O)c1cccc(O)c1,> 39 µg/mL
14,Cc1cc(-c2nc(-c3ccc(C(C)(C)C)cc3)no2)no1,< 0.2 µg/mL
15,O=C1N(CN2CCOCC2)c2ccccc2C12OCC(CCl)O2 (stereo unspecified),49.6 µg/mL
16,CCOc1cc2c(cc1/C=C1/NC(=O)N(CC(=O)OC)C1=O)OCO2,2.9 µg/mL
17,COC(=O)C/C=N/N=C1/NC(=O)/C(=C/C(=O)O)S1,> 40.7 µg/mL
18,Cc1nn(C)c(C)c1NC(=O)COc1ccccc1C#N,> 42.6 µg/mL
19,CCc1ccccc1NC(=S)N(CCc1ccncc1)C(C)C,44 µg/mL
20,CNc1oc(/C=C/c2cccc(OC)c2)nc1C#N,3.7 µg/mL
21,Cc1cc(NC(=S)Nc2cccnc2)ccc1Br,40.7 µg/mL
22,CCc1nnc(NC(=O)C2CC(=O)N(Cc3ccccc3)C2)s1 (stereo unspecified),> 49.6 µg/mL
23,O=C(CN1CCOCC1)Nc1ccc2c(c1)OC(F)(F)O2,41.2 µg/mL
24,Cc1ccc(C(=O)O)cc1NS(=O)(=O)c1ccc2c(c1)oc(=O)n2C,44.8 µg/mL
25,CN(C)CC[n+]1ccc(C(=O)c2ccccc2)cc1.Cl.[Cl-],> 49.1 µg/mL

row,Compound,solubility kinetic
1,O=C(CN1CCCCC1)n1c2ccccc2c2ccccc21,24.3 µg/mL
2,Cc1cc(C)cc(NC(=O)CCN2CCOCC2)c1,> 39.4 µg/mL
3,CCOC(=O)Cn1ccc(-c2ccccc2)c(C#N)c1=O,> 42.3 µg/mL
4,COC(=O)C1CCN(CC(=O)Nc2ccc3c(c2)OCCO3)CC1,> 50.2 µg/mL
5,Cc1cccc(NC(=O)C(=O)NCc2ccc3c(c2)OCO3)c1C,2 µg/mL
6,Cc1ccc(/C=C/C(=O)Nc2ccc(S(N)(=O)=O)cc2)o1,> 46 µg/mL
7,c1ccc(Nc2ccnc(Nc3ccccc3)n2)cc1,6.7 µg/mL
8,CN(C)/N=C/c1ccc(N2CCOCC2)cc1,> 35 µg/mL
9,CCOC(=O)c1sc(NC(=O)Cc2ccccc2OC)nc1C,14.7 µg/mL
10,CC(C)CCN1CCN(Cc2nc3ccccc3s2)CC1CCO (stereo unspecified),> 52.1 µg/mL
11,COc1ccc(S(=O)(=O)NC2CCCC2)cc1NC(C)=O,> 46.9 µg/mL
12,CCC1CCCCN1CC(=O)c1c(C)[nH]c2ccc(OC)cc12 (stereo unspecified),35 µg/mL
13,Cc1ccc(CSc2[nH]c(=O)ncc2C)cc1,11 µg/mL
14,O=C(CN1CCOCC1)NNC(=S)Nc1ccccc1,> 44.2 µg/mL
15,CCc1ccc(C(C)NC(=O)C2CCCO2)cc1 (stereo unspecified),34.9 µg/mL
16,COc1cc(C=O)cc(Cl)c1OC(=O)N1CCOCC1,39.5 µg/mL
17,COc1c(S(=O)(=O)N2CCN(C)CC2)ccc(Cl)c1Cl,45.6 µg/mL
18,O=C(Nc1ccc(Cl)cc1)Nc1ccc(Oc2cccnc2)nc1,0.7 µg/mL
19,O=C1CNC(=O)/C(=C\c2ccc(F)cc2)N1,5 µg/mL
20,N#Cc1ccc(C(=O)NCCCSc2ccccc2)cc1,6.4 µg/mL
21,CCOc1ccc(CSCCNC(=S)Nc2ccc(OC)cc2)cc1,1.1 µg/mL
